Data reported in paper PMC5448077, “Development of an orally available inhibitor of CLK1 for skipping a mutated dystrophin exon in Duchenne muscular dystrophy” (Scientific Reports, 2017).

Columns and labels:
Assay in all cases: biochemical
CK1ε = target: T1, CK1ε (Homo sapiens, UniProt P49674)
T1 construct: gene CSNK1E
Summary of the method: (§1)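 Reactions at room temperature in HEPES buffer (20 mM, pH 7.5, 0.01% Triton X-100, 2 mM DTT) lasted 1 or 5 h depending on kinase, with substrate peptide and ATP-metal. Phosphorylation read by electrophoretic mobility shift or IMAP polarization; kinase activity computed as P/(P + S).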

PAK5 = PAK5 (Homo sapiens, UniProt Q9P286)
Summary of the method: as §1

AMPKα2/β1/γ1 = target: T2, AMPKα2/β1/γ1 (Homo sapiens, UniProt P54646)
T2 construct: gene PRKAA2
Summary of the method: as §1

YES(T348I) = target: T3, YES(T348I) (Homo sapiens, UniProt P07947, T348I)
T3 construct: gene YES1
Summary of the method: as §1

KIT(T670I) = KIT(T670I) (Homo sapiens, UniProt P10721, T670I)
Summary of the method: as §1

HGK = target: T4, HGK (Homo sapiens, UniProt O95819)
T4 construct: gene MAP4K4
Summary of the method: as §1

HIPK3 = HIPK3 (Homo sapiens, UniProt Q9H422)
Summary of the method: as §1

MAPKAPK3 = MAPKAPK3 (Homo sapiens, UniProt Q16644)
Summary of the method: as §1

FYN(isoform a) = target: T5, FYN(isoform a) (Homo sapiens, UniProt P06241)
T5 construct: isoform a
Summary of the method: as §1

SGK2 = SGK2 (Homo sapiens, UniProt Q9HBY8)
Summary of the method: as §1

FGFR3 = FGFR3 (Homo sapiens, UniProt P22607)
Summary of the method: as §1

RSK3 = target: T6, RSK3 (Homo sapiens, UniProt Q15349)
T6 construct: gene RPS6KA2
T6 sequence (Q15349 whole entry): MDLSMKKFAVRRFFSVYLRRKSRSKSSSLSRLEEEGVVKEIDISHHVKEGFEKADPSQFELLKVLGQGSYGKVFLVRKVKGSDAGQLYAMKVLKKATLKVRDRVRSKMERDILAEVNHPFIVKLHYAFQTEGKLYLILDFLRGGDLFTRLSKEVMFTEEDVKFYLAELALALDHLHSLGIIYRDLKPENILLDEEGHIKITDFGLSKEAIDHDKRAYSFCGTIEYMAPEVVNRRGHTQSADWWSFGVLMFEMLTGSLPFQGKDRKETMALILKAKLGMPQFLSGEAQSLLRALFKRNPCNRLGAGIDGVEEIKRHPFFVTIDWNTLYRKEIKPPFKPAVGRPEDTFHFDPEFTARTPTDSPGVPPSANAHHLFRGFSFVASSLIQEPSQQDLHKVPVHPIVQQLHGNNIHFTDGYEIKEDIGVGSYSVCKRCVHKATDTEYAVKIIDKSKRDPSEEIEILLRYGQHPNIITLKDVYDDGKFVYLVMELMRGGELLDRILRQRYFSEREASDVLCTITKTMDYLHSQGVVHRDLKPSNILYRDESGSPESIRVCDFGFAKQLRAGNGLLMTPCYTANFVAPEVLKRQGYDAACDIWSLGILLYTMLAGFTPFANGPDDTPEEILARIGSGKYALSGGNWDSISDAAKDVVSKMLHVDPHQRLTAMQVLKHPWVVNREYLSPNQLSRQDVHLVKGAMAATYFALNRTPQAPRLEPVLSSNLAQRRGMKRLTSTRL
Summary of the method: as §1

CLK3 = CLK3 (Homo sapiens, UniProt P49761)
Sequence of CLK3 (P49761 whole entry): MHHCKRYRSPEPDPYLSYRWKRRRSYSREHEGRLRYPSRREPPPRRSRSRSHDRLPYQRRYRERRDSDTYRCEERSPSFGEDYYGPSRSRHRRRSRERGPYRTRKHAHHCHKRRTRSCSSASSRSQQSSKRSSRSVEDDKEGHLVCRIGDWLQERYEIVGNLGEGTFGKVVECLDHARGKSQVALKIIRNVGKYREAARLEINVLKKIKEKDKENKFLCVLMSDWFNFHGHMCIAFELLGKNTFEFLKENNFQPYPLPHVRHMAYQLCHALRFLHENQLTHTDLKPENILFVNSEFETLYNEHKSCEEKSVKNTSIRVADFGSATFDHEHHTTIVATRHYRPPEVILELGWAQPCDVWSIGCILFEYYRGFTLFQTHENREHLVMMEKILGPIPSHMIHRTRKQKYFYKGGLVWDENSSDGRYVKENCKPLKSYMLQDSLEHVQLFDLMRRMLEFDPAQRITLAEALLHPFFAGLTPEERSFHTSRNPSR
Summary of the method: as §1

TNK1 = TNK1 (Homo sapiens, UniProt Q13470)
Summary of the method: as §1

TSSK3 = TSSK3 (Homo sapiens, UniProt Q96PN8)
Summary of the method: as §1

CGK2 = target: T7, CGK2 (Homo sapiens, UniProt Q13237)
T7 construct: gene PRKG2
T7 sequence (Q13237 whole entry): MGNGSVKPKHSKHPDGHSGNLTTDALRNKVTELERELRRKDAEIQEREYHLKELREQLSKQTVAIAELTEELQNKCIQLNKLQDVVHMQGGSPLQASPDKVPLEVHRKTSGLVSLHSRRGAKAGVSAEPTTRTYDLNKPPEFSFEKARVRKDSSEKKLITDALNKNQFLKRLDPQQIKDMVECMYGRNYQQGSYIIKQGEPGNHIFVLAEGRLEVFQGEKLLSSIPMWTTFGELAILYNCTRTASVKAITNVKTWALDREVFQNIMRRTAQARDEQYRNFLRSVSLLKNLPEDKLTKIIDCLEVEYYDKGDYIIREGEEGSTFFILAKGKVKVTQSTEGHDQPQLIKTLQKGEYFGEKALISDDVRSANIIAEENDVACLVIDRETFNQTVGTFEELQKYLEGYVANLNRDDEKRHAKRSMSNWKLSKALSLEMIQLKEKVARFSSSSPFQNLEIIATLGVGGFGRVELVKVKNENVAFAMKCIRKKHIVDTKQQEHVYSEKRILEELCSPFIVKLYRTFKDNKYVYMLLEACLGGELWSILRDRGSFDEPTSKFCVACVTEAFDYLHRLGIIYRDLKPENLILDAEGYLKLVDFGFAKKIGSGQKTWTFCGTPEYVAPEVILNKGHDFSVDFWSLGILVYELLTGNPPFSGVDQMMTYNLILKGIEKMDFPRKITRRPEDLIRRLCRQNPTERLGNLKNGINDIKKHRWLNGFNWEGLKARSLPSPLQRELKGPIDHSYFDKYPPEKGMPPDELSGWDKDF
Summary of the method: as §1

GSK3α = target: T8, GSK3α (Homo sapiens, UniProt P49840)
T8 construct: gene GSK3A
Summary of the method: as §1

PDGFRα(T674I) = target: T9, PDGFRα(T674I) (Homo sapiens, UniProt P16234, T674I)
T9 construct: gene PDGFRA
T9 sequence (P16234 whole entry T674I): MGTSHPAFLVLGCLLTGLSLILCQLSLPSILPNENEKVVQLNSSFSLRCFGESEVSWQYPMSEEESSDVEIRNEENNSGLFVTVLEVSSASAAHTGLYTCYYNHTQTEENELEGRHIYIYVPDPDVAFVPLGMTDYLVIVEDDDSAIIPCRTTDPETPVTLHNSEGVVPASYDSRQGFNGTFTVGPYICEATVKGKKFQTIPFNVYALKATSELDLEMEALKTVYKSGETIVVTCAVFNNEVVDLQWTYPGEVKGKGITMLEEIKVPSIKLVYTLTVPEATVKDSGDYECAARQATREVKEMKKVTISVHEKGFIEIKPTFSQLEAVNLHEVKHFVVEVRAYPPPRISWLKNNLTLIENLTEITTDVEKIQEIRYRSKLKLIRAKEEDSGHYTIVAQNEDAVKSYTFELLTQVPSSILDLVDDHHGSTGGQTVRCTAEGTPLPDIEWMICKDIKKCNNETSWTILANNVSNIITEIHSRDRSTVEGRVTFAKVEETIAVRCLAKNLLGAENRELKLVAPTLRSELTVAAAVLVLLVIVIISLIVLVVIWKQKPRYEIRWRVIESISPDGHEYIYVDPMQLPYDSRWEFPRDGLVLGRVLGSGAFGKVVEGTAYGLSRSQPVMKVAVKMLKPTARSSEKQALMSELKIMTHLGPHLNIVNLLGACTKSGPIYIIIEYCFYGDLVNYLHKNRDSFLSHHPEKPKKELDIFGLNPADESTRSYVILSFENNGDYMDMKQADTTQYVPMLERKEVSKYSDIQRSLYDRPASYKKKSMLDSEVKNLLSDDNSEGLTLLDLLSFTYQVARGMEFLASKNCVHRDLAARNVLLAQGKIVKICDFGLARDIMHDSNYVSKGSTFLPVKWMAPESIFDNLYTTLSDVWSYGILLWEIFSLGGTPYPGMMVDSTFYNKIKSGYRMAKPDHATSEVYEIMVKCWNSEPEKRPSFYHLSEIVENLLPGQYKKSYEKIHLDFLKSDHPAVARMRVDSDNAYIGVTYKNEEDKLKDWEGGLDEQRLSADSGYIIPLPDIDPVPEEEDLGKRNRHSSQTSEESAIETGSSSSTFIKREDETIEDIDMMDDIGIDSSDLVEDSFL
Summary of the method: as §1

PHKG1 = PHKG1 (Homo sapiens, UniProt Q16816)
Sequence of PHKG1 (Q16816 whole entry): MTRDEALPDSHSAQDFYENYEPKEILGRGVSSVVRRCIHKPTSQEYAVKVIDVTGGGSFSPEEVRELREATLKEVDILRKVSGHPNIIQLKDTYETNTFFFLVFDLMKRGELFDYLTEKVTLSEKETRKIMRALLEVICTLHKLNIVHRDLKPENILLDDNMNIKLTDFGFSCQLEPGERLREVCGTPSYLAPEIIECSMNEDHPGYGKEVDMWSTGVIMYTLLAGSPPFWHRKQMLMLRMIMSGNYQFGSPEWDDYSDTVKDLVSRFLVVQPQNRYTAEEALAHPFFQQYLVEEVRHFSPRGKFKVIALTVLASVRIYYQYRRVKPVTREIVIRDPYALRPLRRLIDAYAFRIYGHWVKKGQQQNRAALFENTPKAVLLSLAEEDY
Summary of the method: as §1

AurA = target: T10, AurA (Homo sapiens, UniProt O14965)
T10 construct: gene AURKA
Summary of the method: as §1

HER4 = target: T11, HER4 (Homo sapiens, UniProt Q15303)
T11 construct: gene ERBB4
Summary of the method: as §1

MAPKAPK2 = MAPKAPK2 (Homo sapiens, UniProt P49137)
Summary of the method: as §1

NDR1 = target: T12, NDR1 (Homo sapiens, UniProt Q15208)
T12 construct: gene STK38
Summary of the method: as §1

CDK7/CycH/MAT1 = CDK7/CycH/MAT1 (Homo sapiens, UniProt P50613)
Summary of the method: as §1

MNK2 = target: T13, MNK2 (Homo sapiens, UniProt Q9HBH9)
T13 construct: gene MKNK2
Summary of the method: as §1

PIM2 = PIM2 (Homo sapiens, UniProt Q9P1W9)
Summary of the method: as §1

PKCδ = target: T14, PKCδ (Homo sapiens, UniProt Q05655)
T14 construct: gene PRKCD
T14 sequence (Q05655 whole entry): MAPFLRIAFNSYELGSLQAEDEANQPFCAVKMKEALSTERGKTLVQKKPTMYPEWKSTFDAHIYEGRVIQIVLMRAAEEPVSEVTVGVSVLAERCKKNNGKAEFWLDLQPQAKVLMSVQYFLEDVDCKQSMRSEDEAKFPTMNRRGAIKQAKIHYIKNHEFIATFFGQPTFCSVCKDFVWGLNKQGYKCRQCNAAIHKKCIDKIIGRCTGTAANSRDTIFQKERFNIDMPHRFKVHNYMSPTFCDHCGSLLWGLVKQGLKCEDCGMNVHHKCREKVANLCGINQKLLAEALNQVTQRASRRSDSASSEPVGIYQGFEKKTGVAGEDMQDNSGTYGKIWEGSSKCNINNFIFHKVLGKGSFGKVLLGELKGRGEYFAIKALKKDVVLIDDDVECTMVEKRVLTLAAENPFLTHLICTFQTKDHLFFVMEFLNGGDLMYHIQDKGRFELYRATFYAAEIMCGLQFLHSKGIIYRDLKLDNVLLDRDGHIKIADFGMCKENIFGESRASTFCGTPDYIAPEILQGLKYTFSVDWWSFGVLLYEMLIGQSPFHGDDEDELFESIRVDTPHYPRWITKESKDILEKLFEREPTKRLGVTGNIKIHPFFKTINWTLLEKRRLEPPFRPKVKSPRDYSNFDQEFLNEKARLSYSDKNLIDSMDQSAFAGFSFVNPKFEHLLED
Summary of the method: as §1

PDGFRα = target: T15, PDGFRα (Homo sapiens, UniProt P16234)
T15 construct: gene PDGFRA
T15 sequence (P16234 whole entry): as the sequence (P16234 whole entry T674I) above, with I674T counted along it
Summary of the method: as §1

MAPKAPK5 = MAPKAPK5 (Homo sapiens, UniProt Q8IW41)
Summary of the method: as §1

MARK2 = MARK2 (Homo sapiens, UniProt Q7KZI7)
Sequence of MARK2 (Q7KZI7 whole entry): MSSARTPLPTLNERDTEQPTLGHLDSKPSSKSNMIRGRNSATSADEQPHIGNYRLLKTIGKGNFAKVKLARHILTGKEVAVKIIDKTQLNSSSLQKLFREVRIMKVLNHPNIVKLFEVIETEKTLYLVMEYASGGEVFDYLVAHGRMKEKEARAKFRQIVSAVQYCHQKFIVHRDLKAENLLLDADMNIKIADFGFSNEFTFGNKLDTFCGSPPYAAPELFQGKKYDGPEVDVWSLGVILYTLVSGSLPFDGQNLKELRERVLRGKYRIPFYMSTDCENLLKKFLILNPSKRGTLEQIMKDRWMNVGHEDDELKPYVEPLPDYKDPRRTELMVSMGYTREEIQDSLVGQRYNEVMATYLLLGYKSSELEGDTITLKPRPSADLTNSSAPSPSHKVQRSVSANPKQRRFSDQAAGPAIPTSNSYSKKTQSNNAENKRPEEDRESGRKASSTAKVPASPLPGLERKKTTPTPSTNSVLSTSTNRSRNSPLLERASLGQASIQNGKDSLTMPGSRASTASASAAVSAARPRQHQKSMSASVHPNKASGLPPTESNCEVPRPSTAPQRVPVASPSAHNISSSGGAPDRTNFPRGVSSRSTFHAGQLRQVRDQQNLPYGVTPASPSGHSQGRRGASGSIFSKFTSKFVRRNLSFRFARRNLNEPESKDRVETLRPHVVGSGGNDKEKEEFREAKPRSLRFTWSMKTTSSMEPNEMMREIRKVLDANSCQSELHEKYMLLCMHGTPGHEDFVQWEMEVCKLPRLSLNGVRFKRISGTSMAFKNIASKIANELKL
Summary of the method: as §1

SPHK2 = SPHK2 (Homo sapiens, UniProt Q9NRA0)
Summary of the method: as §1

Question: With `c1cc(-c2ccc3[nH]ncc3c2)ccn1` [TG693, 5-(4-pyridinyl)-1H-indazole] as the compound, how does the inhibition at 1 µM (CK1ε) read?
Answer: 8%

Question: And the inhibition at 1 µM (PAK5)?
Answer: -14%

Question: And the inhibition at 1 µM (AMPKα2/β1/γ1)?
Answer: 1.7%

Question: What about the inhibition at 1 µM (YES(T348I)) of the same compound?
Answer: -1.4%

Question: And the inhibition at 1 µM (KIT(T670I))?
Answer: -0.7%

Question: And the inhibition at 1 µM (HGK)?
Answer: 66.5%

Question: What about the inhibition at 1 µM (HIPK3) of the same compound?
Answer: -0.7%

Question: What about the inhibition at 1 µM (MAPKAPK3) of the same compound?
Answer: -13.1%

Question: What about the inhibition at 1 µM (FYN(isoform a)) of the same compound?
Answer: -0.7%

Question: And the inhibition at 1 µM (SGK2)?
Answer: -5.4%

Question: And the inhibition at 1 µM (FGFR3)?
Answer: -0.6%

Question: What about the inhibition at 1 µM (RSK3) of the same compound?
Answer: -4.8%

Question: What about the inhibition at 1 µM (CLK3) of the same compound?
Answer: 11.7%

Question: And the inhibition at 1 µM (TNK1)?
Answer: 3.8%

Question: What about the inhibition at 1 µM (TSSK3) of the same compound?
Answer: 0.8%

Question: And the inhibition at 1 µM (CGK2)?
Answer: 38.5%

Question: And the inhibition at 1 µM (GSK3α)?
Answer: 12.6%

Question: What about the inhibition at 1 µM (PDGFRα(T674I)) of the same compound?
Answer: 7.6%

Question: What about the inhibition at 1 µM (PHKG1) of the same compound?
Answer: 0%

Question: And the inhibition at 1 µM (AurA)?
Answer: -6.2%

Question: And the inhibition at 1 µM (HER4)?
Answer: 5.8%

Question: What about the inhibition at 1 µM (MAPKAPK2) of the same compound?
Answer: -26%

Question: What about the inhibition at 1 µM (NDR1) of the same compound?
Answer: 11.5%

Question: What about the inhibition at 1 µM (CDK7/CycH/MAT1) of the same compound?
Answer: 6.2%

Question: What about the inhibition at 1 µM (MNK2) of the same compound?
Answer: 57.3%

Question: And the inhibition at 1 µM (PIM2)?
Answer: -3.5%

Question: And the inhibition at 1 µM (PKCδ)?
Answer: 1.5%

Question: And the inhibition at 1 µM (PDGFRα)?
Answer: 6.2%

Question: And the inhibition at 1 µM (MAPKAPK5)?
Answer: 2.6%

Question: And the inhibition at 1 µM (MARK2)?
Answer: 20.3%

Question: What about the inhibition at 1 µM (SPHK2) of the same compound?
Answer: 4.1%
